Legend:
[1] = target: N-terminal His 6-tagged BRD2 tandem protein; assay: Surface Plasmon Resonance (SPR) off-rate assay; assay type: binding; settings: immobilized BRD2 tandem protein; saturating concentrations injected 5 minutes, buffer 20 minutes
Protocol: Surface Plasmon Resonance (SPR) Assay.
Off rates were determined using surface plasmon resonance measurements on a Bio-Rad ProteOn XPR 36 instrument. N-terminal His 6-tagged BRD2 tandem protein was immobilized by capturing on a ProteOn HTG sensor chip and then cross coupled to the surface using standard amine reactive chemistry. Selected bivalent inhibitors were injected on to the chip surface at saturating concentrations for 5 minutes followed by buffer for 20 minutes. The resulting sensorgrams were analyzed using the ProteOn XPR software to determine off-rates. Off rates for selected bivalent inhibitors were >100× slower when binding to the BRD2 tandem protein compared to the monovalent pharmacophores or compared to the bivalents binding to monobromodomain containing protein constructs.

[2] = system: MV4-11 cells; assay: Inhibition of MV4-11 cell proliferation (Cell-Titer Glo); assay type: cell-based; settings: Homo sapiens, 72 hours of growth, read-out: GI50 range
Protocol: Inhibition of MV4-11 Cell Proliferation.
MV4-11 cells (5000 cells in 50 μl volumes) in growth medium containing 10% FBS and 1% Pen/Strep were plated and grown overnight in 96 well plates and treated the next day with 3-fold dilutions of test compounds or with DMSO vehicle. After 72 hours of growth, 30 ul of Cell-Titer Glo reagent (Promega) was added to the wells and the plates incubated for 30 minutes. Luminescence was measured on a Spectramax M5 plate reader and GI50 values were calculated for each test compound.

[3] = system: Myc mRNA; assay: Inhibition of Myc expression (Myc mRNA) in MV4-11 cells; assay type: cell-based; settings: Homo sapiens, 4 hours of treatment, read-out: EC50 range, Myc mRNA normalized to GAPDH mRNA
From the text: Inhibition of Myc Expression.

Row | SMILES | kd (off rate) [1] | GI50 [2] | EC50 [3]
1 | CCNC(=O)C[C@@H]1N=C(c2ccc(Cl)cc2)c2cc(OCCOCCOCCOCCOCCOCCOCCNC(=O)C[C@@H]3N=C(c4ccc(Cl)cc4)c4cc(OC)ccc4-n4c(C)nnc43)ccc2-n2c(C)nnc21 [BRD-B-14, N-(20-(((4S)-6-(4-chlorophenyl)-4-(2-(ethylamino)-2-oxoethyl)-1-methyl-4H-benzo[f][1,2,4]triazolo[4,3-a][1,4]diazepin-8-yl)oxy)-3,6,9,12,15,18-hexaoxaicosyl)-2-((4S)-6-(4-chlorophenyl)-8-methoxy-1-methyl-4H-benzo[f][1,2,4]triazolo[4,3-a][1,4]diazepin-4-yl)acetamide] | 7.5e-05 s⁻¹ | 0.1 to 30 nM | 0.1 to 30 nM
2 | CCNC(=O)C[C@@H]1N=C(c2ccc(Cl)cc2)c2cc(OCCCNC(=O)C[C@@H]3N=C(c4ccc(Cl)cc4)c4cc(OC)ccc4-n4c(C)nnc43)ccc2-n2c(C)nnc21 [BRD-B-02, N-(3-(((4S)-6-(4-chlorophenyl)-4-(2-(ethylamino)-2-oxoethyl)-1-methyl-4H-benzo[f][1,2,4]triazolo[4,3-a][1,4]diazepin-8-yl)oxy)propyl)-2-((4S)-6-(4-chlorophenyl)-8-methoxy-1-methyl-4H-benzo[f][1,2,4]triazolo[4,3-a][1,4]diazepin-4-yl)acetamide] | 0.00011 s⁻¹ | 0.1 to 30 nM | 100 to 30000 nM
3 | COc1ccc2c(c1)C(c1ccc(Cl)cc1)=N[C@@H](CC(=O)NCCNC(=O)CNC(=O)C[C@@H]1N=C(c3ccc(Cl)cc3)c3cc(OC)ccc3-n3c(C)nnc31)c1nnc(C)n1-2 [BRD-B-07, 2-((S)-6-(4-chlorophenyl)-8-methoxy-1-methyl-4H-benzo[f][1,2,4]triazolo[4,3-a][1,4]diazepin-4-yl)-N-(2-(2-(2-((S)-6-(4-chlorophenyl)-8-methoxy-1-methyl-4H-benzo[f][1,2,4]triazolo[4,3-a][1,4]diazepin-4-yl)acetamido)acetamido)ethyl)acetamide] |  | 100 to 30000 nM | 100 to 30000 nM
4 | CCNC(=O)C[C@@H]1N=C(c2ccc(Cl)cc2)c2cc(OCCOCCOCCOCCOCCOCCOCCOCCNC(=O)C[C@@H]3N=C(c4ccc(Cl)cc4)c4cc(OC)ccc4-n4c(C)nnc43)ccc2-n2c(C)nnc21 [BRD-B-15, N-(23-(((4S)-6-(4-chlorophenyl)-4-(2-(ethylamino)-2-oxoethyl)-1-methyl-4H-benzo[f][1,2,4]triazolo[4,3-a][1,4]diazepin-8-yl)oxy)-3,6,9,12,15,18,21-heptaoxatricosyl)-2-((4S)-6-(4-chlorophenyl)-8-methoxy-1-methyl-4H-benzo[f][1,2,4]triazolo[4,3-a][1,4]diazepin-4-yl)acetamide] | 8.3e-05 s⁻¹ | 0.1 to 30 nM | 100 to 30000 nM
5 | CCNC(=O)C[C@@H]1N=C(c2ccc(Cl)cc2)c2cc(OCCOCCOCCOCCOCCOCCOCCOCCOCCNC(=O)C[C@@H]3N=C(c4ccc(Cl)cc4)c4cc(OC)ccc4-n4c(C)nnc43)ccc2-n2c(C)nnc21 [BRD-B-20, N-(26-(((4S)-6-(4-chlorophenyl)-4-(2-(ethylamino)-2-oxoethyl)-1-methyl-4H-benzo[f][1,2,4]triazolo[4,3-a][1,4]diazepin-8-yl)oxy)-3,6,9,12,15,18,21,24-octaoxahexacosyl)-2-((4S)-6-(4-chlorophenyl)-8-methoxy-1-methyl-4H-benzo[f][1,2,4]triazolo[4,3-a][1,4]diazepin-4-yl)acetamide] |  | 0.1 to 30 nM | 0.1 to 30 nM
6 | CCNC(=O)C[C@@H]1N=C(c2ccc(Cl)cc2)c2cc(OCCOCCNC(=O)C[C@@H]3N=C(c4ccc(Cl)cc4)c4cc(OC)ccc4-n4c(C)nnc43)ccc2-n2c(C)nnc21 [BRD-B-03, N-(2-(2-(((4S)-6-(4-chlorophenyl)-4-(2-(ethylamino)-2-oxoethyl)-1-methyl-4H-benzo[f][1,2,4]triazolo[4,3-a][1,4]diazepin-8-yl)oxy)ethoxy)ethyl)-2-((4S)-6-(4-chlorophenyl)-8-methoxy-1-methyl-4H-benzo[f][1,2,4]triazolo[4,3-a][1,4]diazepin-4-yl)acetamide] | 0.00011 s⁻¹ | 30 to 100 nM | 
